# Test results from patent US20010007856A1, “METHOD FOR PREVENTING AND TREATING AT A SUPERACUTE PHASE, AGAINST NEUROLOGICAL DEFICITS OR NEURONAL DEATH IN BRAIN ISCHEMIA AND PATHOLOGICAL CONDITIONS” (priority 1997, published 2001).
# Where two headings read alike, the source gives them in different places.
# Experiments:
# mice = conditions: mouse, in vivo; cited from earlier work
# [1] = tested on: guinea pigs (Hartley strain, male); conditions: guinea pig, in vivo; cited from earlier work
# [2] = tested on: SD rats (male and female); conditions: oral; 60, 200, 600 mg/kg/day; cited from earlier work
# SD rats [3] = conditions: oral; 60, 200, 600 mg/kg/day; cited from earlier work
# SD rats [4] = conditions: oral, 12 months, cited from earlier work
# microorganisms = conditions: cited from earlier work
# rhesus monkeys [5] = conditions: oral, 3 months; 300, 1,000, 3,000 mg/kg/day; cited from earlier work
# beagle dogs [6] = conditions: oral, 3 months; 200, 600, 2,000 mg/kg/day; cited from earlier work
# solubility (descriptive) = assay type: physicochemical
# From the text: (§1) L-threo-DOPS, whose molecular formula is C9H11NO5, is white or light brown crystals or crystalline powder with no taste or odor. […] It is difficult to measure a clear melting point or decomposition point for L-threo-DOPS. […] DL-threo-DOPS, which contains 50% L-threo-DOPS, can also be used in this invention. Hereafter, L-threo-DOPS and DL-threo-DOPS are generically denoted as “threo-DOPS”.
# SD rats [7] = conditions: oral, 3 months, cited from earlier work
# rabbits = conditions: oral; 30, 100, 300 mg/kg/day; cited from earlier work
# [8] = tested on: middle brain artery (MC) occulusion model Wistar rats; experiment: transient cerebral ischemia, middle brain artery (MC) occlusion model, infarction volume; assay type: in vivo; conditions: for reduction of size of cerebral infarction: MC occlusion 1 hour
# Mice, ICR strain = conditions: cited from earlier work; for LD50: mouse, in vivo
# [9] = tested on: patients with brain ischemia (subarachnoid hemorrhage, cerebral infarction, brain injury, brain hemorrhage); conditions: human, in vivo
# Protocol: In order further to examine the neuroprotective effect in cerebral ischemia indicated from the experiment, a clinical preliminary study was conducted.
# After the neck clipping surgery, 500 mg/day of “DOPS” (registered trademark, Sumitomo Pharmaceuticals Co., Ltd., Japan) was administered for 5 days.
# Neck clipping was conducted on the day of onset, when the patient's condition was Hunt & Kosnic Grade IV. From the third day after subarachnoid hemorrhage, 500 mg/day of “DOPS” (registered trademark) was administered for 5 days.
# Neck clipping was conducted on the day of onset, when the patient's condition was Hunt & Kosnic Grade IV. Since consciousness disturbance (semicoma), hyperventilation, and reduced light reflex were observed on the sixth day after surgery, a diagnosis of impending cerebral herniation was established and 500 mg/day of “DOPS” (registered trademark) was administered for 5 days. […] Soon after discontinuation of administration, mydriasis was rapidly observed.
# Left hemiplegia first appeared and consciousness disturbance (JCS:100) and mydriasis of the right eye were observed 2 days later. Immediately after that, external and internal decompressions was performed and 300 mg/day of “DOPS” (registered trademark) was simultaneously administered for 5 days.
# From the time immediately after injury, the patient developed mydriasis in both eyes and deep coma due to brainstem hernia. […]
# cultured cells = conditions: cited from earlier work
# rhesus monkeys [10] = conditions: cited from earlier work
# Rats, SD strain = conditions: cited from earlier work
# physchem = assay type: physicochemical
# From the text: as §1
# beagle dogs [11] = conditions: cited from earlier work
# SD rats [12] = conditions: oral, 60, 200, 600 mg/kg/day, cited from earlier work
# beagle dogs [13] = conditions: oral, 12 months; 125, 500, 2,000 mg/kg/day; cited from earlier work
# [14] = prior art feature; cited from earlier work
structure (smiles),measurement,setting,value
"N[C@H](C(=O)O)[C@H](O)c1ccc(O)c(O)c1 [L-threo-DOPS, (−)-(2S, 3R)-2-amino-3-hydroxy-3-(3,4-dihydroxyphenyl) propionic acid]","mutagenicity, micronucleus",mice,no mutagenicity was observed
same,Endodermoreaction,[1],negative
same,PCA reaction,[1],negative
same,intra-gel sedimentation reaction,[1],negative
same,systemic anaphylaxis reaction,[1],negative
same,"influence on mating rate, conception rate, nidation number, embryo/neonate death, teratogenic actions or fetal development",[2],no influence was observed
same,dose with shortening of the pregnancy period,SD rats [3],600 mg/kg
same,dose with suppression of neonatal development after birth,SD rats [3],≥ 60 mg/kg
same,other influence,SD rats [3],No other influence was observed
same,"dose with suppression of weight increases, increase in thymus weight, necrosis of kidney uriniferous tubuli, degeneration of kidney glomeruli, etc.","SD rats [4]; 10, 30, 100, 300 mg/kg/day",≥ 30 mg/kg/day
same,"dose with drooling, myocarditis and calcification of cardiac muscles, etc.",SD rats [4],≥ 100 mg/kg/day
same,"mutagenicity, back mutation",microorganisms,no mutagenicity was observed
same,abnormality in various observations and testing evaluations,rhesus monkeys [5],no abnormality was observed
same,abnormality in various observations and testing evaluations,beagle dogs [6],no abnormality was observed
same,"solubility in ether, ethanol and glacial acetic acid","solubility (descriptive); ether, ethanol, glacial acetic acid",dissolves very little
same,solubility in water,solubility (descriptive); water,dissolves only slightly
same,"dose with suppressed voluntary motions, necrosis of kidney uriniferous tubuli, necrosis of cardiac muscles, etc.","SD rats [7]; 60, 300, 1,500 mg/kg/day",≥ 60 mg/kg/day
same,dose with drooling,SD rats [7],"1,500 mg/kg/day"
same,dose with suppression of weight increases and such,SD rats [7],≥ 300 mg/kg/day
same,influence on the rabbits,rabbits,no influence on the rabbits was observed
same,reduction of size of cerebral infarction,"[8]; L-threo-DOPS 400 mg/kg (+ BSZ 2 mg/kg) i.p. 30 minutes before occlusion, FIG. 1",about 40%
same,reduction of size of cerebral infarction,"[8]; L-threo-DOPS 400 mg/kg (+ BSZ 2 mg/kg) i.p. one hour after occlusion, FIG. 2",about 40%
same,regression effect on cerebral infarction,"[8]; MC occlusion 24 hours, L-threo-DOPS 400 mg/kg (+ BSZ 2 mg/kg) i.p. one hour after occlusion, FIG. 3",no regression effect was observed
same,general symptoms in acute toxicity,"Mice, ICR strain; mice","reduced voluntary motions, deep breathing and bradypnea"
same,LD50,"Mice, ICR strain; iv",>100 mg/kg
same,LD50,"Mice, ICR strain; po",>10000 mg/kg
same,LD50,"Mice, ICR strain",>10000 mg/kg
same,adverse effects,[9],No adverse effects were observed
same,"mutagenicity, chromosome abnormality",cultured cells,no mutagenicity was observed
same,LD50,"rhesus monkeys [10]; rhesus monkey, in vivo, po",>5000 mg/kg
same,general symptoms in acute toxicity,rhesus monkeys [10]; rhesus monkeys,no abnormal symptom was observed
same,LD50,"Rats, SD strain; rat, in vivo, po",>10000 mg/kg
same,general symptoms in acute toxicity,"Rats, SD strain; rats","reduced voluntary motions, deep breathing and bradypnea"
same,pKa,physchem,7.88
same,LD50,"beagle dogs [11]; dog, in vivo, po",>5000 mg/kg
same,general symptoms in acute toxicity,beagle dogs [11]; dogs,no abnormal symptom was observed
same,other influence,SD rats [12],No other influence was observed
same,dose with lower body weights of fetuses and increased occurrence of undulating ribs,SD rats [12]; restorable after birth,≥ 200 mg/kg
same,abnormality in various observations and testing evaluations,beagle dogs [13],no abnormality was observed
N[C@H](C(=O)O)[C@H](O)c1ccc(O)c(O)c1 [threo-DOPS],passage through the blood-brain barrier,[14],passes through the blood-brain barrier into the brain
